In patent publication US9609868B2, “Alkoximino-substituted anthranilic acid diamides as pesticides” (BAYER CROPSCIENCE AKTIENGESELLSCHAFT, priority 2013, dated 2017):

What was measured:
[1] = log P by HPLC on reversed-phase column (C18), EEC directive 79/831 Annex V.A8; assay type: physicochemical; details: for log p: HPLC reversed-phase C18, 43° C., data refer to the E isomer
Description: The log P values reported in the tables and Preparation Examples above were determined in accordance with EEC directive 79/831 Annex V.A8 by HPLC (High Performance Liquid Chromatography) using a reversed-phase column (C18). Temperature 43° C. The calibration is effected with unbranched alkan-2-ones (having 3 to 16 carbon atoms), for which the log P values are known.

Boophilus microplus = Boophilus microplus - injection test (BOOPMI Inj); assay type: in vivo; details: application rate 20 μg/animal, injection into engorged adult female cattle ticks
Description: Boophilus microplus—Injection Test (BOOPMI Inj)
(§1) Solvent: dimethyl sulfoxide
To produce a suitable preparation of active compound, 10 mg of active compound are mixed with 0.5 ml of solvent and the concentrate is diluted with solvent to the desired concentration.
1 μl of the active compound solution is injected into the abdomen of 5 engorged adult female cattle ticks (Boophilus microplus). The animals are transferred into dishes and kept in a climate-controlled room.
The activity is assessed after the desired time by laying of fertile eggs. Eggs which are not visibly fertile are stored in a climate-controlled cabinet until the larvae hatch after about 42 days. An efficacy of 100% means that none of the ticks has laid any fertile eggs; 0% means that all the eggs are fertile.

Lucilia cuprina = Lucilia cuprina test (LUCICU); assay type: in vivo; details: application rate 100 ppm
Description: Lucilia cuprina-Test (LUCICU)
as §1
(§2) To produce a suitable preparation of active compound, 10 mg of active compound are mixed with 0.5 ml of dimethyl sulfoxide, and the concentrate is diluted with water to the desired concentration.
About 20 L1 larvae of the Australian sheep blowfly (Lucilia cuprina) are transferred into a test vessel containing minced horsemeat and the active compound preparation of the desired concentration.
After the desired time, the kill in % is determined. 100% means that all the larvae have been killed; 0% means that no larvae have been killed.

Musca domestica = Musca domestica test (MUSCDO); assay type: in vivo
Description: Musca domestica-Test (MUSCDO)
as §1, §2
Vessels containing a sponge treated with sugar solution and the active compound preparation of the desired concentration are populated with 10 adult houseflies (Musca domestica).
After the desired time, the kill in % is determined. 100% means that all of the flies have been killed; 0% means that none of the flies have been killed.

Myzus persicae = Myzus persicae - spray test (MYZUPE); assay type: in vivo; details: application rate 100 g/ha, Chinese cabbage leaf disks
Procedure, shortened: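 Chinese cabbage leaf disks carrying all stages of green peach aphid were sprayed with compound in acetone/DMF with emulsifier, diluted in water. After the chosen period, efficacy was scored as % aphids killed.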

Phaedon cochleariae = Phaedon cochleariae - spray test (PHAECO); assay type: in vivo; details: application rate 100 g/ha, Chinese cabbage leaf disks
Procedure, shortened: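 Active compound in acetone/dimethylformamide with alkylaryl polyglycol ether emulsifier was diluted with emulsifier-containing water to the test concentration and sprayed. After the set period, efficacy was scored as % larvae killed (100% = all beetle larvae dead, 0% = none).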

Spodoptera frugiperda = Spodoptera frugiperda - spray test (SPODFR); assay type: in vivo; details: application rate 100 g/ha, maize leaf disks
Procedure, shortened: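 Maize leaf disks sprayed with compound in acetone/DMF with alkylaryl polyglycol ether emulsifier, diluted in water to test concentration, then infested with armyworm caterpillars once dry. Efficacy given as % caterpillars killed (100% all, 0% none) after the chosen period.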

Tetranychus urticae = Tetranychus urticae - spray test, OP-resistant (TETRUR); assay type: in vivo; details: application rate 100 g/ha, bean leaf disks
Description: Tetranychus urticae—Spray Test, OP-Resistant (TETRUR)
Solvent: 78.0 parts by weight of acetone • • 1.5 parts by weight of dimethylformamide
Emulsifier: 0.5 parts by weight of alkylaryl polyglycol ether
To produce a suitable active compound preparation, 1 part by weight of active compound is mixed with the stated amounts of solvent and emulsifier, and the concentrate is diluted with emulsifier-containing water to the desired concentration.
Disks of bean leaves (Phaseolus vulgaris) infested with all stages of the greenhouse red spider mite (Tetranychus urticae) are sprayed with an active compound preparation of the desired concentration.
After the desired period of time, the efficacy in % is determined. 100% means that all the spider mites have been killed; 0% means that none of the spider mites have been killed.

Row | SMILES | log p ([1]; Table A) | efficacy (no fertile eggs laid) (Boophilus microplus) | efficacy (kill of L1 larvae) (Lucilia cuprina) | efficacy (kill of adult houseflies) (Musca domestica; application rate 100 ppm) | efficacy (aphids killed) (Myzus persicae) | efficacy (beetle larvae killed) (Phaedon cochleariae) | efficacy (caterpillars killed) (Spodoptera frugiperda) | log p ([1]; Table B) | efficacy (spider mites killed) (Tetranychus urticae) | chromatographic logP ([1]; log P) | chromatographic logP ([1]; log p) | efficacy (kill of adult houseflies) (Musca domestica; application rate 20 ppm) | log p ([1]; Table C)
1 | CON=Cc1cc(C)c(NC(=O)c2cc(C(F)F)nn2-c2ncccc2Cl)c(C(=O)NNC(=O)OC)c1 (mixture of isomers) [A-39] | 2.26 | 100% | 100% | 80% | 90% | 100% | 100% | – | – | – | – | – | –
2 | CON=Cc1cc(C)c(NC(=O)c2cc(C(F)F)nn2-c2ncccc2Cl)c(C(=O)NN(C)C(=O)OC)c1 (mixture of isomers) [A-41] | 2.46 | 100% | 100% | 80% | 90% | 100% | 100% | – | – | – | – | – | –
3 | CON=Cc1cc(C)c(NC(=O)c2cc(Br)nn2-c2ncccc2Cl)c(C(=O)NNC(=O)OC)c1 (mixture of isomers) [A-42] | 2.38 | 100% | 100% | 80% | 100% | 100% | 100% | – | – | – | – | – | –
4 | CON=Cc1cc(C)c(NC(=O)c2cc(C(F)(F)F)nn2-c2ncccc2Cl)c(C(=O)NC2COC2)c1 (mixture of isomers) [B-02] | – | 100% | 100% | – | 100% | 100% | 100% | 2.78 | 90% | – | – | – | –
5 | CO/N=C/c1cc(C)c(NC(=O)c2cc(OCC(F)F)nn2-c2ncccc2Cl)c(C(=O)NN(C)C(=O)OC)c1 [A-01, Methyl 2-{2-({[1-(3-chloropyridin-2-yl)-3-(2,2-difluoroethoxy)-1H-pyrazol-5-yl]carbonyl}amino)-5-[(E)-(methoxyimino)methyl]-3-methylbenzoyl}-1-methylhydrazinecarboxylate] | – | – | – | – | 90% | 100% | 100% | – | 90% | 2.58 | 2.58 | – | –
6 | CO/N=C/c1cc(C)c(NC(=O)c2cc(OC(F)F)nn2-c2ncccc2Cl)c(C(=O)NNC(=O)OC)c1 [A-02, Methyl 2-{2-({[1-(3-chloropyridin-2-yl)-3-(difluoromethoxy)-1H-pyrazol-5-yl]carbonyl}amino)-5-[(E)-(methoxyimino)methyl]-3-methylbenzoyl}hydrazinecarboxylate] | – | – | – | – | 90% | 100% | 100% | – | 90% | 2.28 | 2.38 | – | –
7 | CCOC(=O)NNC(=O)c1cc(C=NOC)cc(C)c1NC(=O)c1cc(C(F)(F)F)nn1-c1ncccc1Cl [A-17] | 2.92 | 100% | 100% | – | 90% | 100% | 100% | – | 90% | – | – | 80% | –
8 | CON=Cc1cc(C)c(NC(=O)c2cc(C(F)(F)F)nn2-c2ncccc2Cl)c(C(=O)NNC(=O)Oc2ccccc2)c1 [A-19] | 3.02 | 95% | 100% | – | – | 100% | 100% | – | 90% | – | – | – | –
9 | C#CCOC(=O)NNC(=O)c1cc(C=NOC)cc(C)c1NC(=O)c1cc(C(F)(F)F)nn1-c1ncccc1Cl [A-22] | 2.86 | 100% | 100% | – | 100% | 100% | 100% | – | 100% | – | – | 100% | –
10 | C#CCOC(=O)NN(C)C(=O)c1cc(C=NOC)cc(C)c1NC(=O)c1cc(C(F)(F)F)nn1-c1ncccc1Cl [A-29] | 3.16 | 95% | 100% | – | 90% | – | 100% | – | 90% | – | – | – | –
11 | CON=Cc1cc(C)c(NC(=O)c2cc(OCC(F)F)nn2-c2ncccc2Cl)c(C(=O)NC(C)C)c1 [C-19] | – | 100% | 100% | – | 90% | – | 100% | – | – | – | – | 80% | 3.07
12 | CON=Cc1cc(C)c(NC(=O)c2cc(OC)nn2-c2ncccc2Cl)c(C(=O)NC(C)C)c1 [C-24] | – | 100% | 100% | 100% | 100% | 100% | 100% | – | – | – | – | – | 2.65
13 | CNC(=O)c1cc(C=NOC)cc(C)c1NC(=O)c1cc(C(F)F)nn1-c1ncccc1Cl [C-28] | – | 100% | 100% | 80% | 90% | 100% | 100% | – | – | – | – | – | 2.48
14 | CON=Cc1cc(C)c(NC(=O)c2cc(C(F)F)nn2-c2ncccc2Cl)c(C(=O)NC(C)C)c1 [C-29] | – | 100% | 100% | – | 100% | 100% | 100% | – | – | – | – | 100% | 2.98
15 | CON=Cc1cc(C)c(NC(=O)c2cc(CF)nn2-c2ncccc2Cl)c(C(=O)NC2CC2)c1 [C-42] | – | 100% | 100% | 90% | 90% | 100% | 100% | – | 100% | – | – | – | 2.38
16 | CON=Cc1cc(C)c(NC(=O)c2cc(CF)nn2-c2ncccc2Cl)c(C(=O)NC(C)C2CC2)c1 (stereo not shown) [C-43] | – | – | – | – | 90% | 100% | 100% | – | 90% | – | – | – | 2.96
17 | CON=Cc1cc(C)c(NC(=O)c2cc(CF)nn2-c2ncccc2Cl)c(C(=O)NC(C)(C)C)c1 [C-44] | – | – | – | – | 100% | 100% | 100% | – | 90% | – | – | – | 3.00
18 | CNC(=O)c1cc(C=NOC)cc(C)c1NC(=O)c1cc(CF)nn1-c1ncccc1Cl [C-45] | – | – | – | – | 100% | 100% | 100% | – | 100% | – | – | – | 2.14
